Measurements taken from patent US9540384B2, “Pyrrolidino heterocycles” (Hoffmann-La Roche Inc., priority 2012, dated 2017).

Target: human PDE10A full length (Homo sapiens (Human), UniProt Q9Y233)
Assay: human PDE10A full length Scintillation Proximity Assay (SPA)
Format: biochemical
Details: PDE10A enzyme, 50 nM cGMP + 50 nM [3H]-cGMP, 20 minutes at room temperature
Procedure: The following test was carried out in order to determine the activity of the compounds of the present invention. PDE10 activity of the compounds of the present invention was determined using a Scintillation Proximity Assay (SPA)-based method similar to the one previously described (Fawcett, L. et al., Proc Natl Acad Sci USA (2000) 97(7):3702-3707).
The human PDE10A full length assay was performed in 96-well micro titer plates. The reaction mixture of 50 μl contained 20 mM HEPES pH=7.5/10 mM MgCl2/0.05 mg/ml BSA (Sigma cat. #A-7906), 50 nM cGMP (Sigma, cat. #G6129) and 50 nM [3H]-cGMP (GE Healthcare, cat. #TRK392 S.A. 13.2 Ci/mmol), 3.75 ng/well PDE10A enzyme (Enzo Life Science, Lausen, Switzerland cat #SE-534) with or without a specific test compound. A range of concentrations of the potential inhibitor was used to generate data for calculating the concentration of inhibitor resulting in 50% of the effect (e.g. IC50, the concentration of the competitor inhibiting PDE10A activity by 50%). Non-specific activity was tested without the enzyme. The reaction was initiated by the addition of the substrate solution (cGMP and [3H]-cGMP) and allowed to progress for 20 minutes at room temperature. The reaction was terminated by adding 25 μl of YSi-SPA scintillation beads (GE Healthcare, cat. #RPNQ0150) in 18 mM zinc sulphate solution (stop reagent). After 1 h under shaking, the plate was centrifuged one minute at 170 g to allow beads to settle. Afterwards, radioactive counts were measured on a Perkin Elmer TopCount Scintillation plate reader.

Chain of human PDE10A full length (Q9Y233 other isoform, or with tags, fused parts or gaps): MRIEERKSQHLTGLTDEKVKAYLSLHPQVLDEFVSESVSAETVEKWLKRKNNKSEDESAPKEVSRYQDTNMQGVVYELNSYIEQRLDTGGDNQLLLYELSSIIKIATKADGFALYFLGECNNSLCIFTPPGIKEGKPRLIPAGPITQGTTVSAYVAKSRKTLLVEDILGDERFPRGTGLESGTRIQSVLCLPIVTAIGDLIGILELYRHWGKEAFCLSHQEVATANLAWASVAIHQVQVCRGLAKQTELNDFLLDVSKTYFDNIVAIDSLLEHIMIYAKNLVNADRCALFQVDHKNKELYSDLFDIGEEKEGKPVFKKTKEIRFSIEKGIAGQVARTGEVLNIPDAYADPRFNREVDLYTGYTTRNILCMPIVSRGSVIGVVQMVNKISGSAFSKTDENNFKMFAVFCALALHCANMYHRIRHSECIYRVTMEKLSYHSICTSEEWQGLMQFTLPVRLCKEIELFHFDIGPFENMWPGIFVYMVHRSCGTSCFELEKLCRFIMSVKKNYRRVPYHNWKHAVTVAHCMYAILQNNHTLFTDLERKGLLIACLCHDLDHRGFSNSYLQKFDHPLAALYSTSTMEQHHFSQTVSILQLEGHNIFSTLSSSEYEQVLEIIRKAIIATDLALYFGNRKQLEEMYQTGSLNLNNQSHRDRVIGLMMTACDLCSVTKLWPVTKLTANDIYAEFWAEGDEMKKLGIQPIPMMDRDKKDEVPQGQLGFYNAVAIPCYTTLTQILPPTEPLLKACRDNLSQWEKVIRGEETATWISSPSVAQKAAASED

Which IC50 does the source give for `CN(C)c1cccc(/C=C/c2nc(N(C)C)c3cc(Cl)ccc3n2)n1` [Example 41, (E)-6-Chloro-2-(2-(6-(dimethylamino)pyridin-2-yl)vinyl)-N,N-dimethylquinazolin-4-amine] here?
The IC50 was 750 nM.

How did the IC50 turn out when `CN(C)c1cccc(CCc2nc(N(C)C)c3cc(Cl)ccc3n2)n1` [Example 42, 6-Chloro-2-(2-(6-(dimethylamino)pyridin-2-yl)ethyl)-N,N-dimethyl-quinazolin-4-amine] was run?
The IC50 was 1680 nM.

`Cc1ncc(C)n2nc(/C=C/c3cccc(N4CCCC4)n3)nc12` [Example 43, (E)-5,8-Dimethyl-2-(2-(6-(pyrrolidin-1-yl)pyridin-2-yl)vinyl)[1,2,4]triazolo[1,5-a]pyrazine] was tested. Which IC50 did it give?
The IC50 was 12 nM.

`Cc1nc2ccc(OCc3cccc(N4CCCC4)n3)nn2c1C` [Example 44, 2,3-Dimethyl-6-((6-(pyrrolidin-1-yl)pyridin-2-yl)methoxy)imidazo[1,2-b]pyridazine] was tested. Which IC50 did it give?
Its IC50 is 160 nM.

`Cc1ncc(C)n2nc(CCc3cccc(N4CCCC4)n3)nc12` [Example 45, 5,8-Dimethyl-2-(2-(6-(pyrrolidin-1-yl)pyridin-2-yl)ethyl)-[1,2,4]triazolo-[1,5-a]pyrazine] was tested. Which IC50 did it give?
The IC50 was 4.5 nM.

Which IC50 does the source give for `Cc1cc(C)n2nc(CCc3cncc(N4CCCC4)n3)nc2n1` [Example 46, 5,7-Dimethyl-2-(2-(6-(pyrrolidin-1-yl)pyrazin-2-yl)ethyl)-[1,2,4]triazolo-[1,5-a]pyrimidine] here?
Its IC50 is 300 nM.

With `Cc1cc(C)n2nc(/C=C/c3cccc(N4CCCC4)n3)nc2n1` [Example 47, (E)-5,7-Dimethyl-2-(2-(6-(pyrrolidin-1-yl)pyridin-2-yl)vinyl)[1,2,4]triazolo[1,5-a]pyrimidine] as the compound, how does the IC50 read?
The IC50 was 31 nM.

Which IC50 does the source give for `Cc1cc(C)n2nc(CCc3cccc(N4CCCC4)n3)nc2n1` [Example 48, 5,7-Dimethyl-2-[2-(6-pyrrolidin-1-yl-pyridin-2-yl)-ethyl]-[1,2,4]triazolo[1,5-a]pyrimidine] here?
Its IC50 is 110 nM.

With `Cc1nc2ccc(CCc3cccc(N4CCCC4)n3)nn2c1C` [Example 49, 2,3-Dmethyl-6-(2-(6-(pyrrolidin-1-yl)pyridin-2-yl)ethyl)imidazo[1,2-b]pyridazine] as the compound, how does the IC50 read?
The IC50 was 630 nM.

With `Cc1ncc(C)n2nc(/C=C/c3cncc(N4CCCC4)n3)nc12` [Example 50, (E)-5,8-Dim ethyl-2-(2-(6-(pyrrolidin-1-yl)pyrazin-2-yl)vinyl)[1,2,4]triazolo[1,5-a]pyrazine] as the compound, how does the IC50 read?
Its IC50 is 18 nM.

With `Cc1ncc(C)n2nc(CCc3cncc(N4CCCC4)n3)nc12` [Example 51, 5,8-Dimethyl-2-(2-(6-(pyrrolidin-1-yl)pyrazin-2-yl)ethyl)-[1,2,4]triazolo[1,5-a]pyrazine] as the compound, how does the IC50 read?
The IC50 was 140 nM.

Which IC50 does the source give for `CCc1nc2ccc(OCc3cccc(N4CCCC4)n3)nn2c1C` [Example 52, 2-Ethyl-3-methyl-6-((6-(pyrrolidin-1-yl)pyridin-2-yl)methoxy)imidazo[1,2-b]pyridazine] here?
Its IC50 is 540 nM.

`Cc1nn2ccc(OCc3cccc(N4CCCC4)n3)nc2c1C` [Example 53, 2,3-Dimethyl-5-((6-(pyrrolidin-1-yl)pyridin-2-yl)methoxy)pyrazolo[1,5-a]pyrimidine] was tested. Which IC50 did it give?
Its IC50 is 69 nM.

Which IC50 does the source give for `Cc1cn2nc(OCc3cccc(N4CCCC4)n3)ccc2n1` [Example 54, 2-Methyl-6-((6-(pyrrolidin-1-yl)pyridin-2-yl)methoxy)imidazo[1,2-b]pyridazine] here?
The IC50 was 260 nM.

For `c1cc(COc2ccc3nc(C4CC4)cn3n2)nc(N2CCCC2)c1` [Example 55, 2-Cyclopropyl-6-((6-(pyrrolidin-1-yl)pyridin-2-yl)methoxy)imidazo[1,2-b]pyridazine], which IC50 is on record?
The IC50 was 600 nM.

How did the IC50 turn out when `Cc1c(C(N)=O)nc2ccc(OCc3cccc(N4CCCC4)n3)nn12` [Example 56, 3-Methyl-6-((6-(pyrrolidin-1-yl)pyridin-2-yl)methoxy)imidazo[1,2-b]pyridazine-2-carboxamide] was run?
The IC50 was 1050 nM.

`Cc1c(C(F)(F)F)nc2ccc(NCc3cccc(N4CCCC4)n3)nn12` [Example 57, 3-Methyl-N-((6-(pyrrolidin-1-yl)pyridin-2-yl)methyl)-2-(trifluoromethyl)imidazo[1,2-b]pyridazin-6-amine] was tested. Which IC50 did it give?
The IC50 was 200 nM.

With `Cc1nn2ccc(CCc3cccc(N4CCCC4)n3)nc2c1C` [Example 58, 2,3-Dimethyl-5-(2-(6-(pyrrolidin-1-yl)pyridin-2-yl)ethyl)pyrazolo[1,5-a]pyrimidine] as the compound, how does the IC50 read?
The IC50 was 300 nM.
